Experimental data from ChEMBL document CHEMBL5096151, “Phytocannabinoid Pharmacology: Medicinal Properties of Cannabis sativa Constituents Aside from the "Big Two"” (J Nat Prod, 2021).
pEC50, pIC50, pKi: −log10 of the molar value.

How the values were obtained:
[1] = molecular target: T1, Transient receptor potential cation channel subfamily V member 1 (Homo sapiens, UniProt Q8NER1); assay: Agonist activity at ionomycin-stimulated TRPV1 (unknown origin) activation
[2] = molecular target: T1, Transient receptor potential cation channel subfamily V member 1; assay: Agonist activity at ionomycin-stimulated TRPV1 (unknown origin) activation assessed as efficacy relative to control
[3] = molecular target: T1, Transient receptor potential cation channel subfamily V member 1; assay: Agonist activity at ionomycin-stimulated TRPV1 (unknown origin) channel desensitization in presence of capsaicin
[4] = molecular target: T2, Transient receptor potential cation channel subfamily V member 2 (Homo sapiens, UniProt Q9Y5S1); assay: Agonist activity at ionomycin-stimulated TRPV2 (unknown origin) activation
T2 sequence (Q9Y5S1 whole entry): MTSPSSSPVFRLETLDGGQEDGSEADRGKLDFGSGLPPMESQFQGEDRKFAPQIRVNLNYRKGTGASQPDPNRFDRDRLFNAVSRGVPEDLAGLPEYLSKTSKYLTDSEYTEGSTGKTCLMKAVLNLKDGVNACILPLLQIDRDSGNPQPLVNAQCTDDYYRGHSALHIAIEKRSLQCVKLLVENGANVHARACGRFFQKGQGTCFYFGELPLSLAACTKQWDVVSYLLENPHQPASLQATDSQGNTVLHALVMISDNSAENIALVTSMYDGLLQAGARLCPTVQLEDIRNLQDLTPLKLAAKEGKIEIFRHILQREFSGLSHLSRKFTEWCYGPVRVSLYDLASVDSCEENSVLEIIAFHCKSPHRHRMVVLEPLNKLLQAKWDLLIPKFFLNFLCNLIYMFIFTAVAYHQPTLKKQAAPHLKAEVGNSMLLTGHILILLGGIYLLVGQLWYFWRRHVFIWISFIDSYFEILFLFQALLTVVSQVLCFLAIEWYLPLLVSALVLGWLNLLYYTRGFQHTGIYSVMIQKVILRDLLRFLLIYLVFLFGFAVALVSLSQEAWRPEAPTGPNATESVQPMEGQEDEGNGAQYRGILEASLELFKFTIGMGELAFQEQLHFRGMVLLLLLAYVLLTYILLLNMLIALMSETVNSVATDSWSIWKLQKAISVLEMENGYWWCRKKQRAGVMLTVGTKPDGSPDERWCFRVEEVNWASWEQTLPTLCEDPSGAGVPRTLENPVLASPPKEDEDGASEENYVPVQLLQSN

[5] = molecular target: T3, Transient receptor potential cation channel subfamily V member 3 (Homo sapiens, UniProt Q8NET8); assay: Agonist activity at ionomycin-stimulated TRPV3 (unknown origin) activation
T3 sequence (Q8NET8 whole entry): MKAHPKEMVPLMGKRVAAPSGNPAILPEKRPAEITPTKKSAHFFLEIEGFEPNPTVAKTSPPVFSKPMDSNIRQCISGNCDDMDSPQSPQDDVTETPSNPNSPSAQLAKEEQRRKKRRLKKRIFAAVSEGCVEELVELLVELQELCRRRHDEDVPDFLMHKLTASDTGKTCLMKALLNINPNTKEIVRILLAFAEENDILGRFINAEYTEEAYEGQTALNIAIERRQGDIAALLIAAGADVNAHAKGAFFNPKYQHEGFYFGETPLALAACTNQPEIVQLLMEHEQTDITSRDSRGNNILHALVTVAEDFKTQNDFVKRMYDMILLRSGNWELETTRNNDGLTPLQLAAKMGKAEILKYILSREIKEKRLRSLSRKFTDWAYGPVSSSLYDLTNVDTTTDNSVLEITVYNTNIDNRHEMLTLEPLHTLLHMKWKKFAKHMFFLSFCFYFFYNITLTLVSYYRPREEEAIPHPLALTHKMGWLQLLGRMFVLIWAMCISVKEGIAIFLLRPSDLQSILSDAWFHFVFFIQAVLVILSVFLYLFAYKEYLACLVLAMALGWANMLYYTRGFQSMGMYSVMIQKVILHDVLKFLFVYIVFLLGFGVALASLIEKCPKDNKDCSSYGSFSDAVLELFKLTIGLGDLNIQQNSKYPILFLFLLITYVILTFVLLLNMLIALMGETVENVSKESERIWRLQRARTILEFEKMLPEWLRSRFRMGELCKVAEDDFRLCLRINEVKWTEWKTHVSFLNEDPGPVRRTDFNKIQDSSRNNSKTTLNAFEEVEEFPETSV

[6] = molecular target: T3, Transient receptor potential cation channel subfamily V member 3; assay: Agonist activity at ionomycin-stimulated TRPV3 (unknown origin) channel desensitization in presence of carvacrol
[7] = molecular target: T4, Transient receptor potential cation channel subfamily V member 4 (Homo sapiens, UniProt Q9HBA0); assay: Agonist activity at ionomycin-stimulated TRPV4 (unknown origin) activation
[8] = molecular target: T4, Transient receptor potential cation channel subfamily V member 4; assay: Agonist activity at ionomycin-stimulated TRPV4 (unknown origin) activation assessed as efficacy relative to control
[9] = molecular target: Transient receptor potential cation channel subfamily A member 1 (Homo sapiens, UniProt O75762); assay: Agonist activity at TRPA1 (unknown origin) activation assessed as efficacy relative to control; conditions: filed as agonist
[10] = molecular target: T5, G-protein coupled receptor 55 (Homo sapiens, UniProt Q9Y2T6); assay: Binding affinity to human GPR55 expressed in HEK293 cells assessed as LPI-stimulated ERK1/2 phosphorylation; type: cell-based
[11] = molecular target: G-protein coupled receptor 6 (Homo sapiens, UniProt P46095); assay: Binding affinity to human GPR6 expressed in HEK293 cells assessed as reduction in cAMP level by measuring efficacy incubated for 1 hr by HTRF assay relative to control; type: cell-based
[12] = molecular target: T5, G-protein coupled receptor 55; assay: Binding affinity to human GPR55 expressed in HEK293 cells assessed as LPI-stimulated ERK1/2 phosphorylation by measuring efficacy relative to control; type: cell-based
Cytochrome P450 2B6 = molecular target: T6, Cytochrome P450 2B6 (Homo sapiens, UniProt P20813); assay: Mixed inhibition of recombinant CYP2B6 (unknown origin) using coumarin as substrate in presence of NADPH-generating system; type: ADME
T6 sequence (P20813 whole entry): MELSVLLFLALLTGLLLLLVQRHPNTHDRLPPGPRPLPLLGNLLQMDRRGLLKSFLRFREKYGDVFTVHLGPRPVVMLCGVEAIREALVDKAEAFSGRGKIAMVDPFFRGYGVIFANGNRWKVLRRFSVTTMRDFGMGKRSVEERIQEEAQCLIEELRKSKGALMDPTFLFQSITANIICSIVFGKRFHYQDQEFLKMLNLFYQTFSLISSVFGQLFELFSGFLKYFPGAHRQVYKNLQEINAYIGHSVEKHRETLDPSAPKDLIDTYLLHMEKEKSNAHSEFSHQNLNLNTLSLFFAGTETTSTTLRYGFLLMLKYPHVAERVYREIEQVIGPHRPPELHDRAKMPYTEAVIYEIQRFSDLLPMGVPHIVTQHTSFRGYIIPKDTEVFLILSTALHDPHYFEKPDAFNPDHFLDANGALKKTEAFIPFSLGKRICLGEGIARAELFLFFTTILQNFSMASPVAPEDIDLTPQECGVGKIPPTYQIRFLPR

Cytochrome P450 2D6 [13] = molecular target: T7, Cytochrome P450 2D6 (Homo sapiens, UniProt P10635); assay: Inhibition of CYP2D6 in human liver microsomes in presence of NADPH-generating system incubated for 20 mins; type: ADME, Microsome
Cytochrome P450 2D6 [14] = molecular target: T7, Cytochrome P450 2D6; assay: Inhibition of CYP2D6 in human liver microsomes by measuring inhibition constant in presence of NADPH-generating system incubated for 20 mins; type: ADME, Microsome
Cytochrome P450 2C19 = Cytochrome P450 2C19 (Homo sapiens, UniProt P33261); assay: Mixed inhibition of CYP2C19 (unknown origin) by measuring inhibition constant; type: ADME
Cytochrome P450 2C19, sequence (P33261 whole entry): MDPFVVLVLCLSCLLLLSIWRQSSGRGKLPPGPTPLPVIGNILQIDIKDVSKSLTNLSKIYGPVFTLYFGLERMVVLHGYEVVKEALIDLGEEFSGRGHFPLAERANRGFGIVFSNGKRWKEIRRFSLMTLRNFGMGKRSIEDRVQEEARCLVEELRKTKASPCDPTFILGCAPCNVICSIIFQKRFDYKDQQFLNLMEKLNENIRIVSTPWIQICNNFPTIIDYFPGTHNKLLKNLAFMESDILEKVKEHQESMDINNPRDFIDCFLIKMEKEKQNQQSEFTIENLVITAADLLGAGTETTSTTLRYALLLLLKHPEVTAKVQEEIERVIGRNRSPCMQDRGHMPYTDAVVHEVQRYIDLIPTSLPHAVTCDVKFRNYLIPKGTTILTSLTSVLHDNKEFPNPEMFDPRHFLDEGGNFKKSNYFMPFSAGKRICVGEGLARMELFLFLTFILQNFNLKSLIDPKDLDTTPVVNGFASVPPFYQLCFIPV

T1 sequence (Q8NER1 whole entry): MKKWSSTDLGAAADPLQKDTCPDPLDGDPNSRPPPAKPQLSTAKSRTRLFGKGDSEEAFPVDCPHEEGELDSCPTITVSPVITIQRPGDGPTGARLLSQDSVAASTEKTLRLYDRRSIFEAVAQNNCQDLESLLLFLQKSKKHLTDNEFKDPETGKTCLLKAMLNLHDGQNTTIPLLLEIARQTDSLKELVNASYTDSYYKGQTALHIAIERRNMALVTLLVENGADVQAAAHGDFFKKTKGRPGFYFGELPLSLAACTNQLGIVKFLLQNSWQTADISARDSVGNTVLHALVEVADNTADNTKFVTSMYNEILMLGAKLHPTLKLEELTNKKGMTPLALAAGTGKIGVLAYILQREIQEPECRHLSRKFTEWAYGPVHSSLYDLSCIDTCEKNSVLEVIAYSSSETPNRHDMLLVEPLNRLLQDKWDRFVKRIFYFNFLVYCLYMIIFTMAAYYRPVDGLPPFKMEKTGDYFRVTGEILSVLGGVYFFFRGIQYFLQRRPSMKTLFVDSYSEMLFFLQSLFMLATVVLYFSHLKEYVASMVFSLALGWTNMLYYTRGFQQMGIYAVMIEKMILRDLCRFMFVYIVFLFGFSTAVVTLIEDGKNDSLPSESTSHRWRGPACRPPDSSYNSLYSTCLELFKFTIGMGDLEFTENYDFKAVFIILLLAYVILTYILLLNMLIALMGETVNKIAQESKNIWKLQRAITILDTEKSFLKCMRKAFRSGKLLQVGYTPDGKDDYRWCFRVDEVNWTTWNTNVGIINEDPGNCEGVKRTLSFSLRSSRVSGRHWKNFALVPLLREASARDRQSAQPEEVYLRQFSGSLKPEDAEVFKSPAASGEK
T5 sequence (Q9Y2T6 whole entry): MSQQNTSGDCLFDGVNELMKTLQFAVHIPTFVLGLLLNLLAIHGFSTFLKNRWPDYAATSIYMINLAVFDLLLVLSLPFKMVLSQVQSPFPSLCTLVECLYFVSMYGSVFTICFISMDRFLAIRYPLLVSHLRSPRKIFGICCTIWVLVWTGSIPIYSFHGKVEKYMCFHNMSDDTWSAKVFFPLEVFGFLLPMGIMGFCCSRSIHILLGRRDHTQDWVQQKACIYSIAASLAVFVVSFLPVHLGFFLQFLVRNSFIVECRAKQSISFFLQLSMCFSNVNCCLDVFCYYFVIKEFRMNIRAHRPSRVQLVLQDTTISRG
T4 sequence (Q9HBA0 whole entry): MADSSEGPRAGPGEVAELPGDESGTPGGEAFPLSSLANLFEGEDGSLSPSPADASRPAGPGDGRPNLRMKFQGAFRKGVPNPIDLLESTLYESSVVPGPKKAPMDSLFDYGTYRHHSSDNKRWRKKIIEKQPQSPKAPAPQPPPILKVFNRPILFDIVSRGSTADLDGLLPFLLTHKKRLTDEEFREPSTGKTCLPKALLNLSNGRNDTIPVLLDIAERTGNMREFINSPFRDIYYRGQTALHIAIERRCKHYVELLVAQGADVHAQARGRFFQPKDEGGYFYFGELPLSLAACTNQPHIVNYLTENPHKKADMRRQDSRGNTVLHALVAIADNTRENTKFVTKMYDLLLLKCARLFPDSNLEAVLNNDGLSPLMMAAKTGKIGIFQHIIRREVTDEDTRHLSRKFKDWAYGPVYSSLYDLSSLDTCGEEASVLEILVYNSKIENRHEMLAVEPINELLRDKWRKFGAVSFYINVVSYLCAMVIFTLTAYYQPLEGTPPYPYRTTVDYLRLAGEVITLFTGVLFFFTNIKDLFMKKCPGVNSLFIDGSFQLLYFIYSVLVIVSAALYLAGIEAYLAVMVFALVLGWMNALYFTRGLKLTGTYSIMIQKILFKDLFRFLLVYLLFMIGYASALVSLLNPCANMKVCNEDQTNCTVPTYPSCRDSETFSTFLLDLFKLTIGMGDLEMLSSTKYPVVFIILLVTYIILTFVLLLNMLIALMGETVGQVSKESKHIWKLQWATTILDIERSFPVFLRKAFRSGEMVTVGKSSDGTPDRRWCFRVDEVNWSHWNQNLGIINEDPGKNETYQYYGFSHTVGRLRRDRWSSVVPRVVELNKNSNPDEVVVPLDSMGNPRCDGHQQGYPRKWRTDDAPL
T7 sequence (P10635 whole entry): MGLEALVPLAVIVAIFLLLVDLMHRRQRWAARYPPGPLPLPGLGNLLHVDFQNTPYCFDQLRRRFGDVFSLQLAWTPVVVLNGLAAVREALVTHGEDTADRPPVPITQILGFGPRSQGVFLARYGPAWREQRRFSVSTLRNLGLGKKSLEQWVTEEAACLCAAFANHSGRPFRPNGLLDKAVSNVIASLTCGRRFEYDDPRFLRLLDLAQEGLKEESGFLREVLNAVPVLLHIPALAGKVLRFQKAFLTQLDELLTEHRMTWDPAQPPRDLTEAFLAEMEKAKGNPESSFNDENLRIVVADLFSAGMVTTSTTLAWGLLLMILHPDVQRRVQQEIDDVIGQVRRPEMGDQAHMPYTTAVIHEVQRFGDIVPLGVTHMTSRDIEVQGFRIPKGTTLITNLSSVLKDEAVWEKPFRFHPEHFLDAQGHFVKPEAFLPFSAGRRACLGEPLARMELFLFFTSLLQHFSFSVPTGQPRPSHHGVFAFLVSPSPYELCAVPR
Transient receptor potential cation channel subfamily A member 1, sequence (O75762 whole entry): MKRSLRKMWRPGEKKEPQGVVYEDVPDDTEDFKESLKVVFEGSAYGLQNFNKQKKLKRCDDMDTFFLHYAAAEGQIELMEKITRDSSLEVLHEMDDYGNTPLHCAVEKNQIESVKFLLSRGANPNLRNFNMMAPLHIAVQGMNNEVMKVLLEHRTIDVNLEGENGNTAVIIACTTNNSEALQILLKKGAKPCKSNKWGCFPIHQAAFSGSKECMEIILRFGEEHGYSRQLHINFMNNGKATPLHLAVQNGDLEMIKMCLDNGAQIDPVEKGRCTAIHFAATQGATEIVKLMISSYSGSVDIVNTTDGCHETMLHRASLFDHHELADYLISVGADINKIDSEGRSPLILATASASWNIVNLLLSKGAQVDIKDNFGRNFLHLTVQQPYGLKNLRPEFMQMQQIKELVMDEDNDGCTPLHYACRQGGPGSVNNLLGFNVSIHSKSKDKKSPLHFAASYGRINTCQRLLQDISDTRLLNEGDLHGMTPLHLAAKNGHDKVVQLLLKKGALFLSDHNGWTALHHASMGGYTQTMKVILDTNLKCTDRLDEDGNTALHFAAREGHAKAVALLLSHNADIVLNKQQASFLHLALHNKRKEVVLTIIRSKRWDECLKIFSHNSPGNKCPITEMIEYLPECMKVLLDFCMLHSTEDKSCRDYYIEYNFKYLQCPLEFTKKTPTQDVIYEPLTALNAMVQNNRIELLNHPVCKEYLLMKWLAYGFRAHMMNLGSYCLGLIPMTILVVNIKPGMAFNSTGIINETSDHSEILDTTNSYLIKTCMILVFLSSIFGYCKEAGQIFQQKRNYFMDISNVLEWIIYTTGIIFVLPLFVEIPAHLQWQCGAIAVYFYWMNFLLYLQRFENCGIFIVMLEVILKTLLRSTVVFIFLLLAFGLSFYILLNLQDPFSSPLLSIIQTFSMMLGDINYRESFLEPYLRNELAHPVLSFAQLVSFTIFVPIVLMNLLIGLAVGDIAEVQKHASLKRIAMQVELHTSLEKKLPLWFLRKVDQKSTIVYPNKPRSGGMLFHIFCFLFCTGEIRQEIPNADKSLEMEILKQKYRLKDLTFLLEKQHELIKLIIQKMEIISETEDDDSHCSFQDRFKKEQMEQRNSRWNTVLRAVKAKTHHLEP
G-protein coupled receptor 6, sequence (P46095 whole entry): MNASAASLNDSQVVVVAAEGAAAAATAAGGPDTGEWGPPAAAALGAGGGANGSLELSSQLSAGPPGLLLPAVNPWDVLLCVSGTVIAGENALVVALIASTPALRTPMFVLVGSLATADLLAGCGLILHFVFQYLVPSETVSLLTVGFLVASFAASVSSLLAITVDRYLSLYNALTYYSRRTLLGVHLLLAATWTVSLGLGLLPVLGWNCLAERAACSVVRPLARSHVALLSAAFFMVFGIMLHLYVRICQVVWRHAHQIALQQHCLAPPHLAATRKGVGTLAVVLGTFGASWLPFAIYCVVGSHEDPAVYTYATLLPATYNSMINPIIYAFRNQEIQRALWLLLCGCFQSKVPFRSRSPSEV

C=C(C)[C@@H]1CCC(C)=C[C@H]1c1c(O)cc(CCC)cc1O [CANNABIDIVARIN]
pEC50 [1]: 5.44 | Efficacy [2]: 21% | pIC50 [3]: 5.00 | pEC50 [4]: 5.14 | pEC50 [5]: 5.77 | pIC50 [6]: 4.60 | pEC50 [7]: 6.05 | Efficacy [8]: 30% | Efficacy [9]: 105% | pEC50 [10]: 6.40 | Efficacy [11]: 90% | Efficacy [12]: 49% | pIC50 (Cytochrome P450 2B6): 5.13 | pIC50 (Cytochrome P450 2D6 [13]): 4.99 | pKi (Cytochrome P450 2D6 [14]): 5.24 | pKi (Cytochrome P450 2C19): 5.85
